# Read-outs that look alike come from different tables or passages of the source.
# Test system: TGFβ signal
# Test: TGFβ signal inhibitory activity, (SBE)4-Luc reporter in A549 cells (Test Examples 1A and 1B)
# Format: cell-based, human
# Conditions: Homo sapiens
# Method in brief: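 Stable A549 line carrying (SBE)4-Luc Smad3-binding reporter treated with compound plus TGFβ-1 (2 ng/ml) for 4 hr; luciferase read by chemiluminescence. Percent inhibition relative to TGFβ-only and untreated cells, tested at 3 µM and 10 µM, some also at 1 µM.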
# [1] = A549, test compound 3 µM, Reference Examples, Table 1B, read-out: TGFβ inhibition rate, %
# [2] = A549, test compound 10 µM, Reference Examples, Table 1B, read-out: TGFβ inhibition rate, %
# [3] = A549, 3 µM, compounds of Reference Examples (Test Example 1B), read-out: TGFβ inhibition rate, %
# [4] = A549, 10 µM, compounds of Reference Examples (Test Example 1B), read-out: TGFβ inhibition rate, %
# [5] = A549, test compound 3 µM, TGFβ-1 2 ng/ml, 4 hr, Table 1A, read-out: TGFβ inhibition rate, %
# [6] = A549, test compound 10 µM, TGFβ-1 2 ng/ml, 4 hr, Table 1A, read-out: TGFβ inhibition rate, %
Compound,inhibition at 3 µM [3] [%],inhibition at 10 µM [4] [%],further results
COc1cc2nccc(Oc3ccccc3C(=O)OCCC(C)C)c2cc1OC [Compound r99],–,–,inhibition at 3 µM [1]: 7%; inhibition at 10 µM [2]: 92%
COc1cc2c(Oc3cc(C)c(C)nc3-c3ccccn3)ccnc2cc1OCC(CO)CO [Compound r343],93,–,–
COc1cc2c(Oc3cc4cccnc4nc3C)ccnc2cc1OCC(O)CO (centres unmarked) [Compound r403],27,66,–
"Cc1cc(Oc2ccnc3ccc(-c4cccc(O)c4)cc23)c(-c2ccccn2)nc1C [Compound 11, 3-[4-(5,6-Dimethyl-[2,2']bipyridin-3-yloxy)-quinolin-6-yl]-phenol]",–,–,inhibition at 3 µM [5]: 100%; inhibition at 10 µM [6]: 100%
COc1cc2nccc(Oc3ccc(C(=O)c4cccc(C)c4)cc3)c2cc1OC [r78],–,–,inhibition at 3 µM [1]: 0%; inhibition at 10 µM [2]: 57%
CCc1nc2ccncc2cc1Oc1ccnc2cc(OC)c(OC)cc12 [r424],28,79,–
COc1cc2nccc(Oc3cc(C)c(C)cc3C(C)=NNc3ccccn3)c2cc1OC [Compound r194],47,94,–
COc1cc2c(Oc3cc4ccccc4nc3C)ccnc2cc1OCCCn1ccnc1 [Compound r381],100,100,–
"COc1cc2nccc(Oc3cc4ccccc4nc3Br)c2cc1OC [Compound r281, 4-(2-Bromo-quinolin-3-yloxy)-6,7-dimethoxy-quinoline]",88,100,–
COc1cc2ncnc(Oc3cc4cccnc4nc3-c3ccccc3)c2cc1OC [r436],99,100,–
COc1cc2nccc(Oc3ccc(C)nc3-c3c(Cl)cccc3Cl)c2cc1OC [Compound r253],68,97,–
"Cc1cc(Oc2ccnc3cc(-c4ccncc4)ccc23)c(-c2ccccn2)nc1C [Compound 19, 5,6-Dimethyl-3-(7-pyridin-4-yl-quinolin-4-yloxy)-[2,2']bipyridine]",–,–,inhibition at 3 µM [5]: 100%; inhibition at 10 µM [6]: 100%
COc1cc2nccc(Oc3ccc(Cl)cc3C(=O)c3ccccc3)c2cc1OC [Compound r69],–,–,"inhibition at 3 µM (A549, read-out: TGFβ inhibition rate, %): 100%"
COc1cc2c(Oc3cc4ccccc4nc3C(C)=O)ccnc2cc1O [Compound r390],16,64,–
COc1cc2nccc(Oc3ccc(C)nc3-c3cc(F)cc(F)c3)c2cc1OC [Compound r254],100,100,–
"COc1ccc2ncnc(Oc3cc(C)c(C)nc3-c3ccccn3)c2c1 [Compound 26, 4-(5,6-Dimethyl-[2,2']bipyridin-3-yloxy)-6-methoxy-quinazoline]",–,–,inhibition at 3 µM [5]: 83%; inhibition at 10 µM [6]: 99%
COc1cc2c(Oc3cc(C)c(C)nc3-c3cccc(C)n3)ccnc2cc1O [Compound r443],60,97,–
COc1cc2c(Oc3cc(C)c(C)cc3C(C)=O)ccnc2cc1OCCCl [Compound r315],98,100,–
"COc1cccc(-c2nc3ncccc3cc2Oc2ccnc3cc(OC)c(OC)cc23)c1 [Compound 81, 3-(6,7-Dimethoxy-quinolin-4-yloxy)-2-(3-methoxy-phenyl)-[1,8] naphthyridine]",–,–,inhibition at 3 µM [5]: 97%; inhibition at 10 µM [6]: 100%
"Cc1cc(Oc2ccnc3ccccc23)c(-c2ncccn2)nc1C [Compound 49, 4-(5,6-Dimethyl-2-pyrimidin-2-yl-pyridin-3-yloxy)-quinoline]",–,–,inhibition at 3 µM [5]: 97%; inhibition at 10 µM [6]: 100%
"Cc1cc(Oc2ccnc3ccc(OCCO)cc23)c(-c2ccccn2)nc1C [Compound 142, 2-[4-(5,6-Dimethyl-[2,2']bipyridinyl-3-yloxy)-quinolin-6-yloxy]-ethanol]",–,–,inhibition at 3 µM [5]: 98%; inhibition at 10 µM [6]: 100%
COc1cc2c(Oc3cc4ccccc4nc3C(C)=O)ccnc2cc1OCCN1CCCC(O)C1 (centres unmarked) [Compound r393],100,–,–
COc1cc2nccc(Oc3ccc4c(c3)C(=O)c3ccccc3-4)c2cc1OC [Compound r19],–,–,inhibition at 3 µM [1]: 73%; inhibition at 10 µM [2]: 95%
"COc1cc2nccc(Oc3ccc4c(ccn4C)c3)c2cc1OC [Compound r20, 6,7-Dimethoxy-4-[(1-methyl-5-indolyl)oxy]quinoline]",–,–,inhibition at 3 µM [1]: 19%; inhibition at 10 µM [2]: 69%
COc1cc2nccc(Oc3ccc(C)nc3C(=O)c3ccccc3)c2cc1OC [Compound r220],99,100,–
"CCc1ccc(Oc2ccnc3ccc(OCc4ccccc4)cc23)c(-c2ncccn2)n1 [Compound 190, 6-Benzyloxy-4-(6-ethyl-2-pyrimidin-2-yl-pyridin-3-yloxy)-quinoline]",–,–,inhibition at 3 µM [5]: 100%; inhibition at 10 µM [6]: 100%
COc1cc2c(Oc3cc(C)c(C)nc3-c3nc(C)c(C)s3)ccnc2cc1OCc1ccccc1 [Compound r454],41,75,–

Compound,inhibition at 3 µM [3] [%],inhibition at 10 µM [4] [%],further results
"Fc1cc2nccc(Oc3cc4cccnc4nc3-c3ccccc3)c2c(F)c1F [Compound 102, 2-Phenyl-3-(5,6,7-trifluoro-quinolin-4-yloxy)-[1,8]naphthyridine]",–,–,inhibition at 3 µM [5]: 45%; inhibition at 10 µM [6]: 92%
COc1cc2c(Oc3ccc(C)cc3C(=O)c3ccccc3)ccnc2cc1OCCCN1CCC(CO)CC1 [r135],–,–,inhibition at 3 µM [1]: 100%; inhibition at 10 µM [2]: 100%
C=C(C)C(=O)Oc1ccc(C(=O)c2ccccc2)c(Oc2ccnc3cc(OC)c(OC)cc23)c1 [Compound r67],–,–,inhibition at 3 µM [1]: 4%; inhibition at 10 µM [2]: 93%
COc1cc2nccc(Oc3ccc(C)nc3C(O)c3ccccc3)c2cc1OC (centres unmarked) [r217],91,100,–
"Clc1cc2nccc(Oc3cc4cccnc4nc3-c3ccccc3)c2cc1Cl [Compound 58, 3-(6,7-Dichloro-quinolin-4-yloxy).2-phenyl-[1,8]naphthyridine]",–,–,inhibition at 3 µM [5]: 83%; inhibition at 10 µM [6]: 100%
"COc1ccc2nccc(Oc3cc4cccnc4nc3-c3ccccc3)c2n1 [Compound 128, 2-Methoxy-8-(2-phenyl-[1,8]naphthyridin-3-yloxy)-[1,5]naphthyridine]",–,–,inhibition at 3 µM [5]: 93%; inhibition at 10 µM [6]: 100%
COc1cc2c(Oc3ccc(C)cc3C(=O)c3ccccc3)ccnc2cc1OCCn1ccnc1 [Compound r131],–,–,inhibition at 3 µM [1]: 96%; inhibition at 10 µM [2]: 100%
COc1cc2nccc(Oc3ccc4ccccc4c3C(C)=O)c2cc1OC [r42],–,–,inhibition at 3 µM [1]: 90%; inhibition at 10 µM [2]: 93%
COc1cc2nccc(Oc3cc(C)c(C(C)C)cc3C(C)=O)c2cc1OC [r183],82,100,–
COc1cc2nccc(Oc3ccc4[nH]ccc4c3)c2cc1OC [r293],65,95,–
CC/C=C\CCOC(=O)c1ccccc1Oc1ccnc2cc(OC)c(OC)cc12 [Compound r100],–,–,inhibition at 3 µM [1]: 0%; inhibition at 10 µM [2]: 82%
COc1cc2c(Oc3ccc(C)cc3C(=O)c3ccccc3)ccnc2cc1OCCCCN1CCC(N2CCCCC2)CC1 [Compound r146],–,–,inhibition at 3 µM [1]: 64%; inhibition at 10 µM [2]: 100%
COc1cc2c(Oc3cc4ccccc4nc3C)ccnc2cc1OCCNC(=N)N [Compound r356],-2,54,–
COc1cc2nccc(Oc3cc(C)c(C)nc3-c3ccccc3)c2cc1OC [r268],100,100,–
COc1cc2nccc(Oc3ccc(F)nc3)c2cc1OC [r205],26,57,–
"Fc1ccc2nccc(Oc3cc4cccnc4nc3-c3ccccc3)c2c1 [Compound 53, 3-(6-Fluoro-quinolin-4-yloxy)-2-phenyl-[1,8]naphthyridine]",–,–,"inhibition at 1 µM (A549, test compound 1 µM, TGFβ-1 2 ng/ml, 4 hr, Table 1A, read-out: TGFβ inhibition rate, %): 43%; inhibition at 3 µM [5]: 83%"
COc1cc2c(Oc3ccc(C)cc3C(=O)c3ccccc3)ccnc2cc1OCCCCCl [Compound r141],–,–,inhibition at 3 µM [1]: 55%; inhibition at 10 µM [2]: 89%
COc1cc2c(Oc3cc(C)c(C)nc3-c3cccc(C)n3)ccnc2cc1OCCCO [Compound r447],94,100,–
COc1cc2nccc(Oc3cc(C)c(C)nc3-c3cccnc3)c2cc1OC [Compound r270],100,–,–
"Cc1cc(Oc2ccnc3ccc(-c4cccc(N)c4)cc23)c(-c2ccccn2)nc1C [Compound 10, 3-[4-(5,6-Dimethyl-[2,2']bipyridin-3-yloxy)-quinolin-6-yl]-phenylamine]",–,–,inhibition at 3 µM [5]: 100%; inhibition at 10 µM [6]: 100%
COc1cc2nccc(Oc3ccc(C)cc3C(=O)c3ccc(O)cc3)c2cc1OC [r188],80,100,–
CCCCc1ccc(Oc2ccnc3cc(OC)c(OC)cc23)c(C(C)=O)c1 [r174],57,96,–
CCCOC(=O)c1cc2ccccc2cc1Oc1ccnc2cc(OC)c(OC)cc12 [r201],79,100,–
"COc1ccc2ncnc(Oc3cc4cccnc4nc3-c3ccccc3)c2c1 [Compound 70, 6-Methoxy-4-(2-phenyl-[1,8]naphthyridin-3-yloxy)-quinazoline]",–,–,inhibition at 3 µM [5]: 61%; inhibition at 10 µM [6]: 95%
"Cc1ccc(Oc2ccnc3ccc(OCC(C)(C)CO)cc23)c(-c2ncccn2)n1 [Compound 215, 2,2-Dimethyl-3-[4-(6-methyl-2-pyrimidin-2-yl-pyridin-3-yloxy)-quinolin-6-yloxy]-propan-1-ol]",–,–,inhibition at 3 µM [5]: 79%
CCc1nc2ncccc2cc1Oc1ccnc2cc(OC)c(OC)cc12 [Compound r423],88,100,–
